Here are results for 1 substance from patent US11633370B2, “Use of scavengers of reactive gamma-ketoaldehydes to extend cell lifespan and healthspan” (Vanderbilt University, priority 2016, dated 2023).

The target in this assay is T1, recombinant human SIRT1 (Homo sapiens, UniProt Q96EB6).
T1 construct: purchased R&D Systems, Biotechne
T1 sequence (Q96EB6 1-747): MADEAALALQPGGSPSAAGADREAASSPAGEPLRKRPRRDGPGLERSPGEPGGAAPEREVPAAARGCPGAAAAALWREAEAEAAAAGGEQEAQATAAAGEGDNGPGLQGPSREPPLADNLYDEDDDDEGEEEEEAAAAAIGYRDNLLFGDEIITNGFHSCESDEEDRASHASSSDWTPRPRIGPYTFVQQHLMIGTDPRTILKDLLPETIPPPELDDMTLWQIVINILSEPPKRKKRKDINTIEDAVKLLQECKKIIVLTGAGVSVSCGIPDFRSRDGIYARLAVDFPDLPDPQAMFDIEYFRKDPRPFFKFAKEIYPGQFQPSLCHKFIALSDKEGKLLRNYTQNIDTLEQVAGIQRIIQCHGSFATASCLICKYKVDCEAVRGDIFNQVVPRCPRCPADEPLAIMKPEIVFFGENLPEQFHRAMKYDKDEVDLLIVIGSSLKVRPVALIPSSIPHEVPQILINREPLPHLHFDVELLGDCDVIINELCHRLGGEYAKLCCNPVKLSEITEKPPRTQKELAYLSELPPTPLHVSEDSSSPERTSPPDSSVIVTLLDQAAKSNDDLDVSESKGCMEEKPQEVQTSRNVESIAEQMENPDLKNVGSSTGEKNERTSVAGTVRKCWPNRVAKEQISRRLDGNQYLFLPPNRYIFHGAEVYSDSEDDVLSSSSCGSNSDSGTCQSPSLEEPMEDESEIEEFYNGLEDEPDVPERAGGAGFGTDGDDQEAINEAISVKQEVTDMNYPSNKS
Put plainly: NAD+-dependent deacetylation bioluminescence assay (SIRT-Glo). It counts as biochemical. Particulars: Sirt-Glo luminescence assay, three independent experiments; read-out: IC50, inhibition of deacetylase activity. The procedure: Though SA treatment should prevent IsoK adduct formation on many different protein targets, and many of these proteins could have some impact on lifespan and healthspan, the present inventors determined that there would be specific proteins of particular importance in mediating SA's beneficial effects. Specifically, the present inventors recognized that SIR-2.1 would be one of these “high value targets” for several reasons. […] Recombinant human SIRT1 was incubated with increasing concentrations of synthetically pure IsoK, and enzymatic deacetylase activity was assessed using the luminescence based Sirt-Glo assay (Promega).
Relative activity of the NAD+-dependent histone deacetylase (HDAC) class III enzymes (sirtuins) was measured using the SIRT-Glo™ Assay and Screening System (Promega Corporation, Madison, Wis.) according to the manufacturer's instructions with minor modifications. […] Deacetylation of the peptide substrate is measured using a coupled enzymatic system with a protease in the reagent provided and then cleaves the luminogenic peptide to liberate aminoluciferin. Free aminoluciferin can be quantified using the Ultra-Glo™ firefly luciferase reaction to produce a stable, persistent emission of light. […] 15-E2-IsoK was synthesized by the method of Armanath et al. Luminescence was detected by a microplate reader (FLUOstar Optima microplate reader, BMG Labtechnologies).

For the substance 15-E2-IsoK, the half-maximal inhibitory concentration (IC50) (in general, the midpoint of a concentration-inhibition curve) came to 97.8 µM.
